Measurements from patent US20220117266A1, “NICKEL CHELATION THERAPY” (priority 2019, published 2022).

Legend:
C. jejuni 81-176 = experiment: Growth inhibition, liquid 96-well checkerboard (OD600, MIC, MBC); assay type: cell-based, Campylobacter jejuni; conditions: 24 h
Description: Growth inhibition assays: liquid (96-well) plates experiments. This type of experiment can only be conducted with C. jejuni since the gas requirement for C. concisus (H2-enriched microaerobic) is not compatible with the use of 96-well plates. C. jejuni cells were grown as described above, harvested, and resuspended in sterile NaCl (8 g/L) to an OD600 of 0.1, corresponding approximately to 5×10^8 to 1×10^9 cells/mL. […] Wells were serially (2-fold) diluted in each direction (horizontal and vertical) to introduce all combinations. Wells with no DMG or metal compounds served as (positive) growth controls, and wells with no bacteria served as background (negative growth) controls. A typical protocol and loading plan are described in Table 7. The starting inoculum was at OD600 of 0.05, which corresponds approximately to 2.5×10^8 cells/mL to 5×10^8 cells/mL. After 24 hours incubation under microaerobic conditions at 37° C., OD600 was recorded using a 96 well-plate reader (Microtek). […] Resulting growth (or lack of growth) was examined after overnight culturing; the lowest concentration that inhibits 99.9% of the original culture was defined as MBC. MIC and MBC were determined based on tests (plates) done in triplicate.

Aβ40 peptide = Aβ40 peptide (Homo sapiens, UniProt P05067); experiment: Isothermal titration calorimetry; assay type: binding; set-up: purchased rPeptides, Watkinsville, Ga., USA kit #A-1180-1; host or cells: E. coli; conditions: 1 mM DMG injected instead of nickel; data not shown
Excerpt: Nickel binding to human recombinant Aβ40 peptide is confirmed by isothermal titration calorimetry. Isothermal titration calorimetry (ITC) has been already used to analyze copper or zinc binding to various Aβ peptides, including Ab40 (Talmard et al. Biochemistry 46, 13658-13666 (2007); Sacco et al. JBIC Journal of Biological Inorganic Chemistry 17, 531-541 (2012); Hatcher et al. The journal of physical chemistry B 112, 8160-8164 (2008)). In the current study, we used ITC to determine whether nickel can bind the Aβ40 peptide. The peptide (same used in ThT-based aggregation assays) was present in the sample cell at a concentration of 20 μM. Twenty injections of NiSO4 (1 mM solution, 5 μM increments in sample cell) were performed every 5 min under constant stirring (350 rpm) at 25° C., and the heat release was measured (FIG. 9). The heat release profile indicates Ni binding to the peptide (FIG. 9, top Panel).
Isothermal Titration Calorimetry. […] Briefly, 1 mg of lyophilized Aβ40 peptide (#A-1157-2, rPeptides) was resuspended with 1% NH4OH to a concentration of 250 μM, sonicated for 15-20 sec, before being diluted to a final concentration of 20 μM Aβ40 using ddH2O and TBS 10×, pH 7.4 (working buffer: NH4OH 0.2%, TBS 1×, pH 7.4 (“NTBS”)). […] All samples were degassed for 15 min at 25° C. before use. Titration was initiated using a program for 20 injections (2.38 μL each, every 5 min) with continuous stirring (350 rpm) at constant temperature (25° C.). ITC data were analyzed using NanoAnalyze 1.2 software (TA Instruments). Data obtained with the control experiment (Aβ40 peptide in sample cell, buffer in syringe) were subtracted from each experiment to account for any injection-related heat change.

Sequence of Aβ40 peptide (P05067 672-711): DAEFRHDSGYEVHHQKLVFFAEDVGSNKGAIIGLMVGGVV

## CC(=NO)C(C)=NO [DMG, dimethylglyoxime]
C. jejuni 81-176; DMG 0.062 mM + CuSO4 0 uM
  OD600: 0.31
C. jejuni 81-176; DMG 0.062 mM + CuSO4 2 uM
  OD600: 0.37
C. jejuni 81-176; DMG 0.062 mM + CuSO4 4 uM
  OD600: 0.31
C. jejuni 81-176; DMG 0.062 mM + CuSO4 8 uM
  OD600: 0.33
C. jejuni 81-176; DMG 0.062 mM + CuSO4 16 uM
  OD600: 0.34
C. jejuni 81-176; DMG 0.062 mM + CuSO4 32 uM
  OD600: 0.24
C. jejuni 81-176; DMG 0.062 mM + CuSO4 64 uM
  OD600: 0.22
C. jejuni 81-176; DMG 0.062 mM + CuSO4 128 uM
  OD600: 0.24
C. jejuni 81-176; DMG 0.062 mM + CuSO4 256 uM
  OD600: 0.35
C. jejuni 81-176; DMG 0.062 mM + CuSO4 512 uM
  OD600: 0.34
C. jejuni 81-176; DMG 0.062 mM + CuSO4 1024 uM
  OD600: 0.47
C. jejuni 81-176; DMG 0.125 mM + CuSO4 0 uM
  OD600: 0.25
C. jejuni 81-176; DMG 0.125 mM + CuSO4 2 uM
  OD600: 0.31
C. jejuni 81-176; DMG 0.125 mM + CuSO4 4 uM
  OD600: 0.27
C. jejuni 81-176; DMG 0.125 mM + CuSO4 8 uM
  OD600: 0.31
C. jejuni 81-176; DMG 0.125 mM + CuSO4 16 uM
  OD600: 0.33
C. jejuni 81-176; DMG 0.125 mM + CuSO4 32 uM
  OD600: 0.26
C. jejuni 81-176; DMG 0.125 mM + CuSO4 64 uM
  OD600: 0.23
C. jejuni 81-176; DMG 0.125 mM + CuSO4 128 uM
  OD600: 0.24
C. jejuni 81-176; DMG 0.125 mM + CuSO4 256 uM
  OD600: 0.27
C. jejuni 81-176; DMG 0.125 mM + CuSO4 512 uM
  OD600: 0.34
C. jejuni 81-176; DMG 0.125 mM + CuSO4 1024 uM
  OD600: 0.47
C. jejuni 81-176; DMG 0.25 mM + CuSO4 0 uM
  OD600: 0.26
C. jejuni 81-176; DMG 0.25 mM + CuSO4 2 uM
  OD600: 0.31
C. jejuni 81-176; DMG 0.25 mM + CuSO4 4 uM
  OD600: 0.24
C. jejuni 81-176; DMG 0.25 mM + CuSO4 8 uM
  OD600: 0.37
C. jejuni 81-176; DMG 0.25 mM + CuSO4 16 uM
  OD600: 0.33
C. jejuni 81-176; DMG 0.25 mM + CuSO4 32 uM
  OD600: 0.25
C. jejuni 81-176; DMG 0.25 mM + CuSO4 64 uM
  OD600: 0.22
C. jejuni 81-176; DMG 0.25 mM + CuSO4 128 uM
  OD600: 0.24
C. jejuni 81-176; DMG 0.25 mM + CuSO4 256 uM
  OD600: 0.24
C. jejuni 81-176; DMG 0.25 mM + CuSO4 512 uM
  OD600: 0.27
C. jejuni 81-176; DMG 0.25 mM + CuSO4 1024 uM
  OD600: 0.30
C. jejuni 81-176; DMG 0.5 mM + CuSO4 0 uM
  OD600: 0.22
C. jejuni 81-176; DMG 0.5 mM + CuSO4 2 uM
  OD600: 0.31
C. jejuni 81-176; DMG 0.5 mM + CuSO4 4 uM
  OD600: 0.25
C. jejuni 81-176; DMG 0.5 mM + CuSO4 8 uM
  OD600: 0.23
C. jejuni 81-176; DMG 0.5 mM + CuSO4 16 uM
  OD600: 0.34
C. jejuni 81-176; DMG 0.5 mM + CuSO4 32 uM
  OD600: 0.21
C. jejuni 81-176; DMG 0.5 mM + CuSO4 64 uM
  OD600: 0.19
C. jejuni 81-176; DMG 0.5 mM + CuSO4 128 uM
  OD600: 0.20
C. jejuni 81-176; DMG 0.5 mM + CuSO4 256 uM
  OD600: 0.29
C. jejuni 81-176; DMG 0.5 mM + CuSO4 512 uM
  OD600: 0.14
C. jejuni 81-176; DMG 0.5 mM + CuSO4 1024 uM
  OD600: 0.09
C. jejuni 81-176; DMG 1 mM + CuSO4 0 uM
  OD600: 0.20
C. jejuni 81-176; DMG 1 mM + CuSO4 2 uM
  OD600: 0.27
C. jejuni 81-176; DMG 1 mM + CuSO4 4 uM
  OD600: 0.23
C. jejuni 81-176; DMG 1 mM + CuSO4 8 uM
  OD600: 0.21
C. jejuni 81-176; DMG 1 mM + CuSO4 16 uM
  OD600: 0.37
C. jejuni 81-176; DMG 1 mM + CuSO4 32 uM
  OD600: 0.24
C. jejuni 81-176; DMG 1 mM + CuSO4 64 uM
  OD600: 0.19
C. jejuni 81-176; DMG 1 mM + CuSO4 128 uM
  OD600: 0.10
C. jejuni 81-176; DMG 1 mM + CuSO4 256 uM
  OD600: 0.02
C. jejuni 81-176; DMG 1 mM + CuSO4 512 uM
  OD600: 0.02
C. jejuni 81-176; DMG 1 mM + CuSO4 1024 uM
  OD600: 0.04
C. jejuni 81-176; DMG 2 mM + CuSO4 0 uM
  OD600: 0.24
C. jejuni 81-176; DMG 2 mM + CuSO4 2 uM
  OD600: 0.34
C. jejuni 81-176; DMG 2 mM + CuSO4 4 uM
  OD600: 0.25
C. jejuni 81-176; DMG 2 mM + CuSO4 8 uM
  OD600: 0.26
C. jejuni 81-176; DMG 2 mM + CuSO4 16 uM
  OD600: 0.24
C. jejuni 81-176; DMG 2 mM + CuSO4 32 uM
  OD600: 0.17
C. jejuni 81-176; DMG 2 mM + CuSO4 64 uM
  OD600: 0.01
C. jejuni 81-176; DMG 2 mM + CuSO4 128 uM
  OD600: 0.01
C. jejuni 81-176; DMG 2 mM + CuSO4 256 uM
  OD600: 0.01
C. jejuni 81-176; DMG 2 mM + CuSO4 512 uM
  OD600: 0.02
C. jejuni 81-176; DMG 2 mM + CuSO4 1024 uM
  OD600: 0.04
C. jejuni 81-176; DMG 4 mM + CuSO4 0 uM
  OD600: 0.19
C. jejuni 81-176; DMG 4 mM + CuSO4 2 uM
  OD600: 0.26
C. jejuni 81-176; DMG 4 mM + CuSO4 4 uM
  OD600: 0.15
C. jejuni 81-176; DMG 4 mM + CuSO4 8 uM
  OD600: 0.04
C. jejuni 81-176; DMG 4 mM + CuSO4 16 uM
  OD600: 0.00
C. jejuni 81-176; DMG 4 mM + CuSO4 32 uM
  OD600: 0.00
C. jejuni 81-176; DMG 4 mM + CuSO4 64 uM
  OD600: 0.01
C. jejuni 81-176; DMG 4 mM + CuSO4 128 uM
  OD600: 0.01
C. jejuni 81-176; DMG 4 mM + CuSO4 256 uM
  OD600: 0.02
C. jejuni 81-176; DMG 4 mM + CuSO4 512 uM
  OD600: 0.02
C. jejuni 81-176; DMG 4 mM + CuSO4 1024 uM
  OD600: 0.04
Aβ40 peptide
  binding to Aβ40 peptide (ITC): cannot bind to the peptide
